This note sets out measurements from patent publication US5789431A, “Naphthoquinone antitumor compound and method” (The University of North Carolina at Chapel Hill, priority 1996, dated 1998).

One data set relates to HCT-15. In words: in vitro colon cancer cell growth inhibition (NCI screen).
For the next data set, the system named is MDA-N. In words: in vitro breast cancer cell growth inhibition (NCI screen).
For the next data set, the system named is MCF7/ADR-RES. The description is as above.
The next data set deals with RXF-393. The data set is described as follows: in vitro renal cancer cell growth inhibition (NCI screen).
A further data set deals with PC-3. The data set is described as follows: in vitro prostate cancer cell growth inhibition (NCI screen).
A further data set concerns COLO-205. In words: in vitro colon cancer cell growth inhibition (NCI screen).
The test system of the next data set is SW 620. Described as above.
In a further data set the test system is HCT-116. The data set is described as above.
The test system of the next data set is T-47D. The data set is described as follows: in vitro breast cancer cell growth inhibition (NCI screen).
Another data set relates to OVCAR-3. In words: in vitro ovarian cancer cell growth inhibition (NCI screen).
Another data set relates to NCI-H522. In words: in vitro non-small cell lung cancer cell growth inhibition (NCI screen).
The next data set deals with SK-OV-3. In words: in vitro ovarian cancer cell growth inhibition (NCI screen).
For another data set, the system named is MDA-MB-435. The data set is described as follows: in vitro breast cancer cell growth inhibition (NCI screen).
The test system of the next data set is UACC-62. In words: in vitro melanoma cell growth inhibition (NCI screen).
The subject of another data set is MDA-MB-231/ATCC. In words: in vitro breast cancer cell growth inhibition (NCI screen).
In another data set the test system is M14. The data set is described as follows: in vitro melanoma cell growth inhibition (NCI screen).
A further data set deals with MALME-3M. Described as above.
The next data set relates to UACC-257. Described as above.
The subject of a further data set is HCC-2998. The data set is described as follows: in vitro colon cancer cell growth inhibition (NCI screen).
Another data set deals with SF-539. The data set is described as follows: in vitro CNS cancer cell growth inhibition (NCI screen).
The test system of the next data set is CCRF-CEM. The data set is described as follows: in vitro leukemia cell growth inhibition (NCI screen).
The subject of the next data set is BT-549. In words: in vitro breast cancer cell growth inhibition (NCI screen).
A further data set deals with MCF-7. The description is as above.
Another data set has as its system HL-60(TB). In words: in vitro leukemia cell growth inhibition (NCI screen).
The test system of another data set is MOLT-4. Described as above.
The next data set relates to LOX1MVI. The data set is described as follows: in vitro melanoma cell growth inhibition (NCI screen).
The subject of another data set is HOP-92. The data set is described as follows: in vitro non-small cell lung cancer cell growth inhibition (NCI screen).
Another data set concerns SK-MEL-5. In words: in vitro melanoma cell growth inhibition (NCI screen).
In another data set the test system is SR. The data set is described as follows: in vitro leukemia cell growth inhibition (NCI screen).
The next data set concerns NCI-H460. The data set is described as follows: in vitro non-small cell lung cancer cell growth inhibition (NCI screen).
A further data set concerns SK-MEL-2. In words: in vitro melanoma cell growth inhibition (NCI screen).
The test system of a further data set is K-562. In words: in vitro leukemia cell growth inhibition (NCI screen).
The test system of another data set is HT 29. The data set is described as follows: in vitro colon cancer cell growth inhibition (NCI screen).
For a further data set, the system named is ACHN. In words: in vitro renal cancer cell growth inhibition (NCI screen).
Another data set concerns IGROV1. In words: in vitro ovarian cancer cell growth inhibition (NCI screen).
A further data set has as its system SNB-75. In words: in vitro CNS cancer cell growth inhibition (NCI screen).
The next data set concerns U 251. The data set is described as above.
The next data set relates to UO-31. In words: in vitro renal cancer cell growth inhibition (NCI screen).
A further data set deals with OVCAR-4. In words: in vitro ovarian cancer cell growth inhibition (NCI screen). Conditions: OVACR-4.
For a further data set, the system named is human tumor cell lines. The format is cell-based.
The subject of another data set is TK-10. In words: in vitro renal cancer cell growth inhibition (NCI screen).
The next data set deals with NCI-H23. The data set is described as follows: in vitro non-small cell lung cancer cell growth inhibition (NCI screen).
In a further data set the test system is NCI-H266. The data set is described as above.
A further data set concerns SN12C. The data set is described as follows: in vitro renal cancer cell growth inhibition (NCI screen).

`CCNC1=C(NC(=O)c2ccccc2)C(=O)c2ccccc2C1=O` [Compound 47]: the “cytotoxicity log GI50” value is listed as -4.73 M in the data set with HCT-15; -5.31 M in the data set with MDA-N; -4.78 M in the data set on MCF7/ADR-RES; -4.62 M in the data set with RXF-393; -4.74 M with PC-3; -4.78 M in the data set on COLO-205. Further, the “cytotoxicity log GI50” value is listed as -4.63 M in the data set on SW 620; -4.59 M in the data set with HCT-116; -4.85 M in the data set with T-47D; -4.47 M in the data set on OVCAR-3; -4.95 M in the data set with NCI-H522; -4.62 M in the data set on SK-OV-3. The “cytotoxicity log GI50” value is -5.14 M in the data set with MDA-MB-435; -4.70 M in the data set with UACC-62; -5.21 M in the data set on MDA-MB-231/ATCC; -4.58 M in the data set on M14; -4.77 M in the data set with MALME-3M; -4.63 M with UACC-257.
For the compound `COC(=O)CCCC(=O)NC1=C(NCc2ccccc2)C(=O)c2ccccc2C1=O` [Compound 51], the “cytotoxicity log GI50” value was -4.49 M in the data set with HCC-2998; -4.38 M with MDA-N; -4.44 M in the data set on SF-539; -4.56 M in the data set on MCF7/ADR-RES; -4.44 M with CCRF-CEM; -4.62 M in the data set with COLO-205. Moreover, the “cytotoxicity log GI50” value in the data set on BT-549 is recorded as -4.54 M; with MCF-7 it was -4.52 M; in the data set with OVCAR-3, -4.64 M; in the data set with MDA-MB-435, -4.37 M; with UACC-62 it was -4.53 M; in the data set on HL-60(TB), -4.54 M. The “cytotoxicity log GI50” value is recorded as -4.53 M with M14, -4.81 M in the data set with MALME-3M, -4.53 M with UACC-257 and -4.47 M in the data set on MOLT-4.
`COC(=O)CCC(=O)NC1=C(Nc2ccc(OC)cc2)C(=O)c2ccccc2C1=O` [Compound 56]: the “cytotoxicity log GI50” value with LOX1MVI was -5.41 M; with HOP-92, -5.66 M; with MDA-N it was -5.74 M; with SK-MEL-5, -5.75 M; in the data set on OVCAR-3 it was -5.48 M; in the data set on SR, -5.16 M. Besides, the “cytotoxicity log GI50” value in the data set on MDA-MB-435 is given as -5.69 M; in the data set with UACC-62, -5.67 M; in the data set on MDA-MB-231/ATCC it was -4.63 M; with M14, -5.22 M; with NCI-H460, -5.18 M; with SK-MEL-2 it was -5.31 M. For the same compound, in the data set with UACC-257, the “cytotoxicity log GI50” value is on record as -5.37 M.
`Cc1nc2c(n1CCCl)C(=O)c1ccccc1C2=O` [Compound 21, 1-(2'-Chloroethyl)-2-methylnaphth[2,3-d]imidazole-4,9-dione]: the “cytotoxicity log GI50” value was -5.10 M in the data set with HCT-15; -4.80 M in the data set on K-562; -4.80 M with HT 29; -4.79 M with MCF7/ADR-RES; -6.78 M in the data set on RXF-393; -5.07 M in the data set on PC-3. Also, the “cytotoxicity log GI50” value with COLO-205 is reported as -4.85 M; in the data set with ACHN, -6.32 M; in the data set on IGROV1 it was -4.94 M; in the data set on SNB-75, -4.84 M; with U 251, -4.90 M; with UO-31, -6.22 M. The “cytotoxicity log GI50” value in the data set with SK-OV-3 is reported as -5.28 M; in the data set on MDA-MB-435 it was -4.82 M; in the data set with UACC-62, -4.89 M; with HL-60(TB), -4.79 M; in the data set on OVCAR-4, -4.83 M; in the data set with MDA-MB-231/ATCC it was -4.81 M. Moreover, the “cytotoxicity log GI50” value is given as -5.33 M in the data set with M14; -5.24 M in the data set with MALME-3M; -4.83 M in the data set on NCI-H460; -4.85 M in the data set with UACC-257; -4.89 M in the data set with MOLT-4. Further, the “cytotoxicity against tumor cells (in words)” value in the data set on human tumor cell lines (cancer cell line panel) is listed as “comparable to those of compounds 6-14”.
Regarding `O=C(O)CCc1nc2c(n1Cc1ccccc1)C(=O)c1ccccc1C2=O` [Compound 61], the “cytotoxicity log GI50” value is reported as -4.57 M in the data set with LOX1MVI; -5.26 M in the data set on HOP-92; -4.67 M in the data set on MDA-N; -4.55 M in the data set on SF-539; -4.47 M with TK-10; -4.52 M in the data set with NCI-H23. For the same compound, the “cytotoxicity log GI50” value in the data set with RXF-393 was -4.60 M; in the data set on COLO-205, -4.47 M; in the data set on SW 620 it was -4.50 M; in the data set on SK-MEL-5, -4.67 M; with HCT-116 it was -4.44 M; in the data set with OVCAR-3, -4.55 M. Moreover, the “cytotoxicity log GI50” value with NCI-H522 was -4.62 M; in the data set on UO-31, -4.51 M; in the data set on MDA-MB-435 it was -4.72 M; in the data set on UACC-62 it was -4.42 M; in the data set on MDA-MB-231/ATCC, -4.47 M; in the data set with M14, -4.67 M. Further, the “cytotoxicity log GI50” value is reported as -4.42 M with NCI-H460, -4.59 M in the data set on SK-MEL-2 and -4.47 M in the data set on UACC-257.
Take `CCc1nc2c(n1CC)C(=O)c1ccccc1C2=O` [Compound 23]: the “cytotoxicity log GI50” value with TK-10 is -4.66 M; in the data set with HT 29, -4.60 M; with RXF-393 it was -4.70 M; with PC-3, -4.73 M; in the data set with COLO-205 it was -4.77 M; in the data set with SW 620, -4.57 M. Further, the “cytotoxicity log GI50” value with BT-549 was -4.76 M; in the data set with NCI-H266, -4.54 M; in the data set on IGROV1, -4.61 M; in the data set with T-47D it was -4.74 M; in the data set on OVCAR-3, -4.73 M; in the data set with SNB-75, -4.68 M. Besides, the “cytotoxicity log GI50” value with MDA-MB-435 is reported as -4.74 M; with UACC-62, -4.54 M; with SN12C, -4.56 M; with MDA-MB-231/ATCC, -4.77 M; with M14 it was -4.63 M; in the data set with MALME-3M, -4.81 M. The “cytotoxicity log GI50” value with UACC-257 is given as -4.60 M. Also, the GI50 in the data set on human tumor cell lines (Homo sapiens, cancer cell panel, general / most cell lines, read-out: logGI50 values in the cancer cell line panel (converted)) was ~10 µM.
